Tests used:
[1] = system: sodium dependent glucose transporter; details: in vitro study; cited from earlier work
[2] = molecular target: T1, human pancreatic lipase (Homo sapiens, UniProt P16233); assay: lipase inhibition activity (USP units per mg); format: biochemical
T1 sequence (P16233 17-465): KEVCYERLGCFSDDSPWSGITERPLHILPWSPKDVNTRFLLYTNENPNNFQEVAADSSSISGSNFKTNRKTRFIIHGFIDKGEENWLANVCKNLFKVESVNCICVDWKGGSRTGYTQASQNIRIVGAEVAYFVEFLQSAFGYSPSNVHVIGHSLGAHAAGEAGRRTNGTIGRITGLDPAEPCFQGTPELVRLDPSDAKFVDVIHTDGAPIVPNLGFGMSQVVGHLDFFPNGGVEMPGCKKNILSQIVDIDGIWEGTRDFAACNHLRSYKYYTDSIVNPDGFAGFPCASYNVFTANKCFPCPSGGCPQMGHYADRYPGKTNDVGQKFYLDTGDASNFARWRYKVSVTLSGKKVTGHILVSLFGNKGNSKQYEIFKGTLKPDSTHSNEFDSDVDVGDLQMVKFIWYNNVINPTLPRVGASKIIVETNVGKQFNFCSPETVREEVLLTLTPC
Method: Polymerized catechins are prepared from fermented catechins. Tea catechins are incubated with polyphenol oxidase in a reaction tank for 60 to 120 minutes. The mixture is then extracted with ethyl acetate and dried. In particular embodiments, the extracts have at least 10 USP units human pancreatic lipase inhibition per mg.
LIPOTAME™, an exemplary polymerized catechin commercially available from NatureGen, has 11.62 USP units/mg of lipase inhibition activity, compared to 80 USP units/mg of lipase inhibition activity found in ORLISTAT®.

Row | SMILES | inhibition of the glucose uptake through incubated intestinal membranes [1] | lipase inhibition activity [2] [USP units/mg]
1 | O=C(O[C@@H]1Cc2c(O)cc(O)cc2O[C@@H]1c1ccc(O)c(O)c1)c1cc(O)c(O)c(O)c1 [Epicatechin gallate] | up to 50% | 
2 | CCCCCCCCCCC[C@@H](C[C@@H]1OC(=O)[C@H]1CCCCCC)OC(=O)[C@H](CC(C)C)NC=O [ORLISTAT®, Orlistat] |  | 80
